Source: patent US20130102009A1, “SIRTUIN ACTIVATORS AND ACTIVATION ASSAYS” (priority 2010, published 2013)
pKd: −log10 of the molar value. Where a name gives a salt, the structure may show the parent alone.

Assays:
SIRT1 = target: T1, SIRT1 (Homo sapiens, UniProt Q96EB6); experiment: Mass spectrometry based SIRT1 activation assay (TAMRA/5TMR-labeled 20mer peptide); assay type: biochemical; details: for Emax: 25 min, percent maximum fold activation of SIRT1, read-out: % FOLD ACT.; for EC1.5 uM: concentration that results in 150% activation of SIRT1
T1 sequence (Q96EB6 1-747): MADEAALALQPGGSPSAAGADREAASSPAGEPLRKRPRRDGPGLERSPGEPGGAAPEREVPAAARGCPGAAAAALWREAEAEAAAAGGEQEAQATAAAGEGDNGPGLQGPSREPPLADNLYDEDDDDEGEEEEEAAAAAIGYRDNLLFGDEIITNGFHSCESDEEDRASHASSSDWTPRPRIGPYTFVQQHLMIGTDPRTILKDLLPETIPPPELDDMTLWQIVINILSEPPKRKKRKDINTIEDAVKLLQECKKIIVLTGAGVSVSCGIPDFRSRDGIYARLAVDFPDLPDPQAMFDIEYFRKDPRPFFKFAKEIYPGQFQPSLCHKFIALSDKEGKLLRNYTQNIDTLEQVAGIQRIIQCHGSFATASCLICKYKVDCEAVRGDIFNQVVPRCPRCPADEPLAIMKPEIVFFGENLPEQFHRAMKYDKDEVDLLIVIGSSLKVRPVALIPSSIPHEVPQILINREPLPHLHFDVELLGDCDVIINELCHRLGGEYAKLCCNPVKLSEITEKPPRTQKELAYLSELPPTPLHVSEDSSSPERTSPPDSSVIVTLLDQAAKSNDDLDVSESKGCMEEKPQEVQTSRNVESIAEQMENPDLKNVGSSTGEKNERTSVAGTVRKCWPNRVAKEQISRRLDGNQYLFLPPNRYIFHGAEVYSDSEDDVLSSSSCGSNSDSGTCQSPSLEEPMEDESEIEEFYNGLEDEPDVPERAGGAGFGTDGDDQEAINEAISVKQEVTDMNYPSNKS
Excerpt: A mass spectrometry based assay was used to identify modulators of SIRTI activity. The mass spectrometry based assay utilizes a peptide having 20 amino acid residues as follows: Ac-EE-K(biotin)-GQSTSSHSK(Ac)NleSTEG-K(5TMR)-EE-NH2 (SEQ ID NO: 1) wherein K(Ac) is an acetylated lysine residue and Nle is a norleucine. The peptide is labeled with the fluorophore 5TMR (excitation 540 nrnIemission 580 nm) at the C-terminus. The sequence of the peptide substrate is based on p53 with several modifications. In addition, the methionine residue naturally present in the sequence was replaced with the norleucine because the methionine may be susceptible to oxidation during synthesis and purification.
The mass spectrometry assay is conducted as follows: 0.5 J-1M peptide substrate and 120 μM βNAD^+ is incubated with 10 nM SIRT1 for 25 minutes at 25° C. in a reaction buffer (50 mM Tris-acetate pH 8, 137 mM NaCl, 2.7 mM KCl, 1 mM MgClz, 5 mM DTT, 0.05% BSA). Test compounds may be added to the reaction as described above. The SirTI gene is cloned into a T7-promoter containing vector and transformed into BL21 (DE3). After the 25 minute incubation with SIRT1, 10 μL of 10% formic acid is added to stop the reaction. Reactions are sealed and frozen for later mass spec analysis. Determination of the mass of the substrate peptide allows for precise determination of the degree of acetylation (i.e. starting material) as compared to deacetylated peptide (product).
A control for inhibition of sirtuin activity is conducted by adding 1 μL of 500 mM nicotinamide as a negative control at the start of the reaction (e.g., permits determination of maximum sirtuin inhibition). A control for activation of sirtuin activity is conducted using 10 nM of sirtuin protein, with 1 μL of DMSO in place of compound, to determine the amount of deacetylation of the substrate at a given timepoint within the linear range of the assay. This timepoint is the same as that used for test compounds and, within the linear range, the endpoint represents a change in velocity.
For the above assay, SIRTI protein was expressed and purified as follows. The SirT1 gene was cloned into a T7-promoter containing vector and transformed into BL21(DE3). The protein was expressed by induction with 1 mM IPTG as an N-terminal His-tag fusion protein at 18° C. overnight and harvested at 30,000×g. Cells were lysed with lysozyme in lysis buffer (50 mM Tris-HCl, 2 mM Tris[2-carboxyethyl]phosphine (TCEP), 10 μM ZnCl2, 200 mM NaCl) and further treated with sonication for 10 min for complete lysis. The protein was purified over a Ni-NTA column (Amersham) and fractions containing pure protein were pooled, concentrated and run over a sizing column (Sephadex S200 26/60 global). The peak containing soluble protein was collected and run on an Ion-exchange column (MonoQ). Gradient elution (200 mM-500 mM NaCl) yielded pure 20 protein. This protein was concentrated and dialyzed against dialysis buffer (20 mM TrisHCl, 2 mM TCEP) overnight. The protein was aliquoted and frozen at −80° C. until further use.
Sirtuin modulating compounds that activated SIRT1 were identified using the assay described above and are shown below in Table 4. The EC1.5 values represent the concentration of test compounds that result in 150% activation of SIRT1. The EC1.5 values for the activating compounds are represented by A (EC1.5≦1 μM), B (EC1.5>1 μM). The percent maximum fold activation is represented by A (Fold activation ≧200%) or B (Fold Activation <200%).

[1] = target: Ac-Arg-His-Lys-Lys^Ac-NH2; experiment: ITC binding of STACs to Ac-Arg-His-Lys-Lys^Ac-X, X=NH2; details: 10% DMSO for SRT1720, SRT2183 and 10, no cosolvent for SRT1460
Experimental: (§1) ITC experiments were performed using either a VP-ITC system or iTC200 system (MicroCal) at 26° C. in a buffer composed of 137 mM NaCl, 2.7 mM KCl, 1 mM MgCl2, 2 mM TCEP, 5% (v/v) glycerol and 50 mM HEPES-NaOH, pH 7.3. SIRT1(183-664) was purified and dialyzed against the buffer, centrifuged, and degassed before the experiment. The peptide and compounds were dissolved in the final dialysis buffer and their pH values were adjusted to match that of the protein solution. […] To characterize this interaction using the iTC200 system, 1 mM TAMRA-peptide was injected in 20 aliquots of 2 μL, (except the first injection, which was 0.5 μL) into a 0.202 mL sample cell containing 100 μM STAC. For STACs with poor solubility, the concentrations were adjusted accordingly. […] In all cases, data was corrected for the heat of dilution and fitted using a nonlinear least-squares routine using a single-site binding model with Origin for ITC v7.0383 (Microcal) with the stoichiometry (n), the enthalpy of the reaction (ΔH) and the association constant (Ka) calculated. Table 2 summarizes Kd values for the binding of STACs to […]. Note that except for SRT1460, the solubility of the compounds required that these ITC experiments be done in solutions containing 10% DMSO.

[2] = target: Ac-Arg-His-Lys-Lys^Ac-Trp-NH2; experiment: ITC binding of STACs to Ac-Arg-His-Lys-Lys^Ac-X, X=TrpNH2; details: 10% DMSO for SRT1720, SRT2183 and 10, no cosolvent for SRT1460
Experimental: as §1

Row | Emax (SIRT1) [%] | EC1.5 uM (SIRT1) | Structure (SMILES) | pKd [1] | pKd [2] | Kd for binding to Ac-Arg-His-Lys-Lys^Ac-X, X=TrpNH2 [2]
1 | ≥ 200 | A (EC1.5≦1 μM) | CN(C)CCCNc1cc(-c2nc3c(NC(=O)c4ccc(CN5CCNCC5)cc4)cccc3[nH]2)ccn1 [Compound 14, N-(2-(2-(3-(dimethylamino)propylamino)pyridin-4-yl)-1H-benzo[d]imidazol-4-yl)-4-(piperazin-1-ylmethyl)benzamide trihydrochloride] | – | – | –
2 | ≥ 200 | A (EC1.5≦1 μM) | Cc1nc(-c2cccnc2)sc1C(=O)Nc1ccccc1-c1cn2c(CN3CC4CC3CN4)csc2n1 (stereo not shown) [Compound 4, N-(2-(3-(2,5-diazabicyclo[2.2.1]heptan-2-ylmethyl)imidazo[2,1-b]thiazol-6-yl)phenyl)-4-methyl-2-(pyridin-3-yl)thiazole-5-carboxamide] | – | – | –
3 | < 200 | B (EC1.5>1 μM) | CN(C)Cc1cnc2sc(-c3ccccc3NC(=O)c3cnc4ccccc4n3)nc2c1 [Compound 2, N-(2-(6-((dimethylamino)methyl)thiazolo[5,4-b]pyridin-2-yl)phenyl)quinoxaline-2-carboxamide] | – | – | –

More lines, now with the values behind:

Row | Structure (SMILES) | Emax (SIRT1) [%] | EC1.5 uM (SIRT1) | pKd [1] | pKd [2] | Kd for binding to Ac-Arg-His-Lys-Lys^Ac-X, X=TrpNH2 [2]
4 | CCCCc1nc(NC2CCNCC2)cc(C(=O)Nc2ccccc2-c2nc3cc(COC4CCNCC4)cnc3s2)n1 [Compound 10, 2-butyl-6-(piperidin-4-ylamino)-N-(2-(6-((piperidin-4-yloxy)methyl)thiazolo[5,4-b]pyridin-2-yl)phenyl)pyrimidine-4-carboxamide] | ≥ 200 | A (EC1.5≦1 μM) | < 3.30 | 4.60 | binds
5 | COc1cc(C(=O)Nc2ccccc2-c2cn3c(CN4CCNCC4)csc3n2)cc(OC)c1OC [SRT1460] | – | – | < 3.30 | < 3.30 | –
